Assay results reported in US9522163B2, “Methods of treating hepatitis” (priority 2002, dated 2016).
“Also recorded” adds a separate entry of the source.

Columns and labels:
iNOS = iNOS promoter luciferase reporter assay in hepatocytes; type: cell-based; settings: CO 250 ppm
Protocol: In some experiments, gene transfer of an IκBα superrepressor (Hellerbrand et al., Hepatology 27:1285-1295 (1998)) or β-galactosidase using adenoviral vectors (10 pfu/cell) was performed 12 hours prior to TNF-α/ActD treatment. NF-κB activation was evaluated using a luciferase reporter assay as described in Chow et al. (J. Biol. Chem. 274: 10689-10692 (1999)). Briefly, hepatocytes were co-transfected with NF-κB reporter constructs (pGL3-kappaβ luciferase, 100 ng/well; and pIEP-Lac-z 0.5 μg/well) using Lipofectin™ (Invitrogen, Carlsbad, Calif.) as instructed by the manufacturer. Evaluation of iNOS expression was performed using a luciferase reporter assay as described in Lowenstein et al. (Proc. Natl. Acad. Sci. U.S.A 90: 9730-9734 (1993)). Briefly, hepatocytes were co-transfected with iNOS promoter reporter constructs (pXP2; 1 μg/well) and pIEP-LacZ (0.5 μg/well) as described above.
Hepatocytes were transfected with plasmids as described above and treated with various stimuli 24 hours after transfection. Luciferase activity (reported as arbitrary units; A.U.) was assayed 6 hours after initiation of treatment, using a luciferase assay kit (Promega, Madison, Wis.) and a Berthold Luminometer. Results were corrected for transfection efficiency and protein concentration. […]

[1] = system: LPS/D-Gal-induced liver injury; experiment: LPS/D-Gal acute hepatitis model; type: in vivo, mice
Protocol: Results discussed above were confirmed using lipopolysaccharide (LPS, also referred to as endotoxin) in place of TNF. […] In mice pretreated with 250 ppm CO, the increase in ALT was reduced by >75%, to 250+/−75 IU/ml. To further characterize the effects observed with CO in this model, serum interleukin-6 was measured, and found to be reduced 65% in animals breathing CO vs air-breathing controls (data not shown). […] Few changes in the markers of inflammation (edema, hemorrhage, neutrophil infiltration) were observed. Architecture was maintained and appeared grossly similar to untreated and CO (in the absence of LPS/D-Gal)-treated mice. Overall, the use of LPS/D-Gal to induce acute hepatitis paralleled and confirmed data generated using TNF/D-Gal treatment.

[2] = system: mouse primary hepatocytes; experiment: TNF-α/ActD-induced cell death, crystal violet viability; type: cell-based
Protocol: Mouse primary hepatocytes were harvested from C57BL/6J, mkk3^−/−, inos^−/− (in-house breeding colony), or hmox-1^−/− mice as described in Kim et al. (J. Biol. Chem. 272: 1402-1411 (1997)). Hepatocytes were used on days 1-3 following harvest.
Cells were treated with TNF-α (10 ng/ml) and actinomycin-D (Act-D; 200 ng/ml, Sigma Chemical Co. St. Louis, Mo.) to induce cell death.
Whether exogenous CO is protective against hepatocyte cell death in vitro was investigated. To generate the data presented in FIG. 2, mouse hepatocytes were pre-incubated with CO (250 ppm) for 1 hr (standard pre-treatment time for all experiments) prior to addition of TNF-α/Act-D (10 ng/200 ng/ml respectively). Cells were maintained in CO for the duration of the experiment. Twelve hours afterward, cell viability was measured as described in Kim et al. (J. Biol. Chem. 272: 1402-1411 (1997)). Adenoviral experiments involved incubating hepatocytes overnight with 10 pfu/cell of the adenovirus prior to addition of TNF-α/ActD, and then assaying for viability using crystal violet. The roles of signaling molecules guanylyl cyclase and p38 MAPK were also investigated in this model. To evaluate the role of cGMP and confirm the role of NF-κB, hepatocytes were treated separately with the soluble guanylate cyclase (sGC) inhibitor 1H-[1,2,4]Oxadiazolo[4,3-a]quinoxalin-1-one (ODQ; Calbiochem; 2-10 μM) or the NF-κB inhibitor BAY 11-7082, (10 μM). Cells were treated with the inhibitors for 1 hour prior to the 1 hour pretreatment with CO. TNF-α/ActD was then added and the cells tested for viability 12 hours later. NF-κB activation was critical to the protection elicited by CO while cGMP was not involved.
To generate the data presented in FIG. 9, mouse hepatocytes were isolated from inos^−/− or from wild type C57BL/6J mice, which were then pre-treated for 1 hr with L-NIO (1 mM) to inhibit iNOS prior to CO administration. Those groups exposed to CO received a one-hour pretreatment prior to addition of TNF-α/ActD and were then returned to CO exposure.
To generate the data presented in FIG. 19, mouse hepatocytes were isolated from HO-1 null mice (hmox-1^−/−) and wild type (C57BL/6J) littermates, pretreated for 1 hour with CO (250 ppm), and treated with TNF-α/ActD. Viability was assayed as described above.
To generate the data presented in FIG. 20, mouse hepatocytes were isolated from HO-1 null mice (hmox-1^−/−) and wild type (C57BL/6J) littermates, pretreated with the NO donor SNAP (500 μM), and then treated with TNF-α/ActD 1 hour later.

[3] = pretreated with 250 ppm CO, 8 hours after LPS/D-Gal

Q: With `[C-]#[O+]` [CO, carbon monoxide] as the compound, how does the “iNOS luciferase reporter activity” value (iNOS) read?
A: highly significant increase in activity

Q: And the Liver histopathology ([1]; CO and LPS/D-Gal)?
A: protected to the same extent

Q: What about the “Serum interleukin-6 reduced vs air-breathing controls” value ([1]; animals breathing CO, LPS/D-Gal, data not shown) of the same compound?
A: 65%

Q: And the “Reduction of the increase in serum ALT” value [1, 3]?
A: > 75%

Q: And the “Serum ALT” value [1, 3]?
A: 250+/−75 IU/ml

Q: And the “TNF-α/ActD-induced cell death, hmox-1−/− hepatocytes” value ([2]; CO 250 ppm, 1 hour pretreatment)?
A: unable to protect

Q: And the “TNF-α/ActD-induced cell death, wild type hepatocytes” value ([2]; CO 250 ppm, 1 hr pre-incubation and maintained, viability 12 hours)?
A: significantly less cell death; also recorded: significantly protected

Q: What about the “Cell death in the presence of SB203580” value ([2]; SB203580 3-30 μM, data not shown) of the same compound?
A: inhibited cell death

Q: And the “Cell death in hepatocytes from mkk3−/− mice” value ([2]; data not shown)?
A: inhibited cell death

Q: What about the “Protection when CO treatment initiated after addition of TNF-α” value ([2]; data not shown) of the same compound?
A: less protection was observed

Q: What about the “Protection against cell death where iNOS expression was absent or inhibited” value ([2]; inos−/− hepatocytes or wild type with L-NIO 1 mM, 12 hr) of the same compound?
A: did not provide protection
